Source: patent publication US11591334B2, “Substituted pyrrolizines for the treatment of hepatitis B” (SHANGHAI LONGWOOD BIOPHARMACEUTICALS CO., LTD., priority 2017, dated 2023)
Where two headings read alike, the source gives them in different places.

Experiments:
C150 protein = target: T1, C150 protein (Hepatitis B virus genotype D subtype adw, UniProt P03147, C107A/C48A/C61A/R150C); assay: In vitro anti-HBV nucleocapsid assembly activity test (Experiment 1, protein experiment); assay type: biochemical
T1 construct: purchased WuXi Apptec Co., Ltd
T1 sequence (P03147 1-150 C48A/C61A/C107A/R150C): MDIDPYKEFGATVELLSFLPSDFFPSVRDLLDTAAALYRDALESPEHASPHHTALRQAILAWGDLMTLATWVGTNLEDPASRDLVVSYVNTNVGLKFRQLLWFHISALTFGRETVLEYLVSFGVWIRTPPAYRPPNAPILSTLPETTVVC
Description: Experiment 1: In Vitro Anti-HBV Nucleocapsid Assembly Activity Test
Main Reagents and Raw Materials:
C150 protein was expressed and purified by WuXi Apptec Co., Ltd.
BoDIPY® FL was purchased from Thermo Fisher Scientific.
Protein Fluorescent Label:
150 μL of 2% w/v skimmed milk was added into each well of 96-well plate, and incubated at room temperature for 2 hours. The skimmed milk was aspirated. The plate was washed with deionized water and dried, and stored at room temperature. C150 protein (3 mg per tube) was desalted with 5 ml Hitrap desalting column. The desalted C150 protein of each tube was added with 50 mM BoDIPY® FL Fluorescent Dye (20 μl), and incubated under 4° C. overnight in the dark after well mixed. Sephadex G-25 gel was used for filtration to remove fluorescent dyes that were not bounded onto C150. The C150 fluorescent labeling efficiency was calculated according to the following equation: [BoDIPY®FL]=A504/78,000 M^−1; [C150Bo]=(A280−[BoDIPY®FL]×1300 M^−1)/60,900 M^−1; Fluorescent Labeling Efficiency=[BoDIPY®FL]/[C150Bo];
The mother liquor of compound was diluted with DMSO to 6 mM, then diluted to 600 μM with 50 mM HEPES, and then further 3-fold diluted with 10 DMSO/50 mM HEPES to 8 concentrations.
C150Bo was diluted to 2 μM with 50 mM HEPES. 37.5 μL of C150Bo and 2.5 μL of compound at each concentration were added into a 96 well plate and well mixed, then incubated at room temperature for 15 minutes. 10 μl of 750 mM NaCl/50 mM HEPES were added into the each reaction well, and the final concentration of NaCl was 150 mM.
Into the control wells in the 0% protein group 10 μL of 50 mM HEPES was added, and the final concentration of NaCl was 0 mM.
Into the control wells in the 100% protein group 10 μL of 5 M/50 mM HEPES was added, and the final concentration of NaCl was 1 M.
The final concentration of DMSO was 0.5%, the maximum final concentration of the compound was 30 μM, and final concentration of C150Bo was 1.5 μM. The mixture was incubated at room temperature for 1 hour. Fluorescence signal was measured (excitation light was 485 nm; emission light was 535 nm).
Data Analysis % protein assembly=[1−(Sample fluorescence value−1 M NaCl fluorescence value)/(0 M NaCl fluorescence value−1 M NaCl fluorescence value)]×100.
IC50 value was calculated by prism software, and the equation was as follows: Y=Bottom+(Top−Bottom)/(1+10^((LogIC50−X)HillSlope));

HBV = assay: Determination of anti-HBV activity in HepG2.2.15 cell (Experiment 2, HBV DNA in supernatant by qPCR); assay type: cell-based; conditions: Hepatitis B virus; HepG2.2.15 cells, HBV DNA in supernatant on the eighth day, qPCR; read-out: Experiment 2 Cell experiment EC50
Description: Experiment 2: Determination of Anti-HBV Activity in HepG2.2.15 Cell
(§1) Compound dilution. All the compounds for in vitro anti-HBV activity assay and cytotoxicity assay were 3-fold diluted into 8 concentrations. The final concentration of the tested compound was 30 μM, the final starting concentration of reference compound GLS4 was 1 μM, and the final concentration of DMSO was 0.5%.
HepG2.2.15 cell (4×10^4 cell/well) was inoculated into 96 well plate, and cultured overnight in 37° C., 5% CO2. On the second day, fresh culture medium containing different concentrations of the compound was added into the culture wells. On the fifth day, the old culture solution in the culture well was aspirated and fresh culture medium containing different concentrations of the compound was added.
On the eighth day, the supernatant in the culture well was collected for extraction of HBV DNA, and the content of DNA in the supernatant of HepG2.2.15 HBV was detected by qPCR. After the supernatant was collected, the medium and Cell-titer Glo reagent were added into the culture well, and the chemiluminescence value of each well was measured by microplate reader.
The activity calculation formula was as follows: Y=Bottom+(Top−Bottom)/(1+10^((LogIC50−X)*Hillslope));

[1] = Determination of cytotoxicity (Experiment 3, resazurin assay); assay type: cell-based; conditions: human; HepG2 cells, incubated for 4 days, resazurin assay; read-out: Experiment 3 Cytotoxicity CC50
Description: as §1, with “0.5%. Experiment 3: Determination of Cytotoxicity The cytotoxicity of the test compound was tested using HepG2 cells. The cells were incubated for 4 days in the presence of the test compound. Cell activity was assessed using the resazurin assay.” for “0.5%.”

[2] = fluorescently labeled C150 (C150Bo) 1.5 μM, 150 mM NaCl, 1 hour at room temperature, read-out: Experiment 1 Protein experiment IC50

Which IC50 (C150 protein; [2]) does the source give for `C[C@@H](NS(=O)(=O)c1c(Cl)c(C(=O)Nc2ccc(F)c(F)c2)n2c1C=CCCC2)C(F)(F)F` [Compound 50a] here?
Its IC50 is 1000 to 100000 nM.

What about the EC50 (HBV) of the same compound?
Its EC50 is 0.1 to 100 nM.

And the CC50 at 4 days [1]?
Its CC50 at 4 days is over 30000 nM.

Which results are given for `C[C@@H](NS(=O)(=O)c1c(Cl)c(C(=O)Nc2ccc(F)c(C#N)c2)n2c1C=CCCC2)C(F)(F)F` [Compound 50b]?
IC50 (C150 protein): > 100000 nM; EC50 (HBV): 0.1 to 100 nM; CC50 at 4 days [1]: > 30000 nM

Which results are given for `C[C@@H](NS(=O)(=O)c1c(Cl)c(C(=O)Nc2ccc(F)c(F)c2)n2c1CCCCC2)C(F)(F)F` [Compound 60a]?
IC50 (C150 protein; [2]): > 100000 nM; EC50 (HBV): 0.1 to 100 nM; CC50 at 4 days [1]: > 30000 nM

For `C[C@@H](NS(=O)(=O)c1c(Cl)c(C(=O)Nc2ccc(F)c(C#N)c2)n2c1CCCCC2)C(F)(F)F` [Compound 60b], which IC50 (C150 protein) is on record?
Its IC50 is 1000 to 100000 nM.

And the EC50 (HBV)?
The EC50 was 0.1 to 100 nM.

What about the CC50 at 4 days [1] of the same compound?
The CC50 at 4 days was over 30000 nM.

Which IC50 (C150 protein; [2]) does the source give for `CC(NS(=O)(=O)c1c2ncccc2c(C(=O)Nc2ccc(F)c(F)c2)n1C)C(F)(F)F` (stereo not drawn) [Compound 70a] here?
The IC50 was over 100000 nM.

What about the EC50 (HBV) of the same compound?
Its EC50 is 0.1 to 100 nM.

And the CC50 at 4 days [1]?
The CC50 at 4 days was over 30000 nM.

Which results are given for `CC(NS(=O)(=O)c1c2ncccc2c(C(=O)Nc2ccc(F)c(C#N)c2)n1C)C(F)(F)F` (stereo not drawn) [Compound 70b]?
IC50 (C150 protein; [2]): > 100000 nM; EC50 (HBV): 0.1 to 100 nM; CC50 at 4 days [1]: > 30000 nM

For `C[C@@H](NS(=O)(=O)c1c2[nH]ccc2c(C(=O)Nc2ccc(F)c(F)c2)n1C)C(F)(F)F` [Compound 80a], which IC50 (C150 protein; [2]) is on record?
The IC50 was 1000 to 100000 nM.

What about the EC50 (HBV) of the same compound?
Its EC50 is 100 to 1000 nM.

What about the CC50 at 4 days [1] of the same compound?
The CC50 at 4 days was over 30000 nM.

Which IC50 (C150 protein; [2]) does the source give for `CC(NS(=O)(=O)c1c2[nH]ccc2c(C(=O)Nc2ccc(F)c(C#N)c2)n1C)C(F)(F)F` (stereo not drawn) [Compound 80b] here?
Its IC50 is 1000 to 100000 nM.

And the EC50 (HBV)?
The EC50 was 100 to 1000 nM.

What about the CC50 at 4 days [1] of the same compound?
Its CC50 at 4 days is over 30000 nM.

Which IC50 (C150 protein; [2]) does the source give for `CC(NS(=O)(=O)c1c2[nH]ccc2c(C(=O)Nc2cc(F)nc(C#N)c2)n1C)C(F)(F)F` (stereo not drawn) [Compound 80d] here?
Its IC50 is 1000 to 100000 nM.

What about the EC50 (HBV) of the same compound?
Its EC50 is 0.1 to 100 nM.

And the CC50 at 4 days [1]?
The CC50 at 4 days was over 30000 nM.

With `Cn1c(C(=O)Nc2cc(F)nc(C#N)c2)c2cc[nH]c2c1S(=O)(=O)NC1(C)COC1` [Compound 80f] as the compound, how does the IC50 (C150 protein; [2]) read?
Its IC50 is 1000 to 100000 nM.

What about the EC50 (HBV) of the same compound?
The EC50 was 0.1 to 100 nM.

What about the CC50 at 4 days [1] of the same compound?
The CC50 at 4 days was over 30000 nM.

Which IC50 (C150 protein; [2]) does the source give for `C[C@@H](NS(=O)(=O)Nc1c(Cl)c(C(=O)Nc2ccc(F)c(F)c2)n2c1CCC2)C(F)(F)F` [Compound 90a] here?
Its IC50 is 1000 to 100000 nM.

And the EC50 (HBV)?
The EC50 was 0.1 to 100 nM.

And the CC50 at 4 days [1]?
Its CC50 at 4 days is over 30000 nM.

Which results are given for `CC(NS(=O)(=O)Nc1c(Cl)c(C(=O)Nc2ccnc(Cl)c2)n2c1CCC2)C(F)(F)F` (stereo not drawn) [Compound 90b]?
IC50 (C150 protein; [2]): 1000 to 100000 nM; EC50 (HBV): 0.1 to 100 nM; CC50 at 4 days [1]: > 30000 nM

For `CC(CO)NS(=O)(=O)Nc1c(Cl)c(C(=O)Nc2cc(F)nc(C#N)c2)n2c1CCC2` (stereo not drawn) [Compound 90f], which IC50 (C150 protein; [2]) is on record?
The IC50 was 1000 to 100000 nM.

And the EC50 (HBV)?
Its EC50 is 0.1 to 100 nM.

What about the CC50 at 4 days [1] of the same compound?
Its CC50 at 4 days is over 30000 nM.

Which results are given for `Cc1c(NS(=O)(=O)NC2(C)COC2)c2n(c1C(=O)Nc1ccc(F)c(F)c1)CCC2` [Compound 90g]?
IC50 (C150 protein; [2]): 1000 to 100000 nM; EC50 (HBV): 0.1 to 100 nM; CC50 at 4 days [1]: > 30000 nM

Which IC50 (C150 protein; [2]) does the source give for `Cc1c(NS(=O)(=O)NC2(C)COC2)c2n(c1C(=O)Nc1cc(F)nc(C#N)c1)CCC2` [Compound 90h] here?
The IC50 was 1000 to 100000 nM.

What about the EC50 (HBV) of the same compound?
The EC50 was 0.1 to 100 nM.

What about the CC50 at 4 days [1] of the same compound?
Its CC50 at 4 days is over 30000 nM.

With `CC(NC(=O)Nc1c(Cl)c(C(=O)Nc2ccnc(Cl)c2)n2c1CCC2)C(F)(F)F` (stereo not drawn) [Compound 100b] as the compound, how does the IC50 (C150 protein) read?
Its IC50 is 1000 to 100000 nM.

And the EC50 (HBV)?
The EC50 was 0.1 to 100 nM.

And the CC50 at 4 days [1]?
Its CC50 at 4 days is over 30000 nM.

Which IC50 (C150 protein) does the source give for `Cc1c(NC(=O)NC(C)C(F)(F)F)c2n(c1C(=O)Nc1ccnc(Cl)c1)CCC2` (stereo not drawn) [Compound 100d] here?
The IC50 was 1000 to 100000 nM.

What about the EC50 (HBV) of the same compound?
Its EC50 is 0.1 to 100 nM.

And the CC50 at 4 days [1]?
Its CC50 at 4 days is over 30000 nM.

For `CC(CO)NC(=O)Nc1c(Cl)c(C(=O)Nc2cc(F)nc(C#N)c2)n2c1CCCC2` (stereo not drawn) [Compound 100p], which IC50 (C150 protein; [2]) is on record?
The IC50 was 1000 to 100000 nM.

What about the EC50 (HBV) of the same compound?
Its EC50 is 0.1 to 100 nM.

And the CC50 at 4 days [1]?
Its CC50 at 4 days is over 30000 nM.

Which IC50 (C150 protein; [2]) does the source give for `CC(NC(=O)Nc1c(Cl)c(C(=O)Nc2ccnc(Cl)c2)n2c1CCCCC2)C(F)(F)F` (stereo not drawn) [Compound 100q] here?
The IC50 was 1000 to 100000 nM.

What about the EC50 (HBV) of the same compound?
Its EC50 is 0.1 to 100 nM.

And the CC50 at 4 days [1]?
The CC50 at 4 days was over 30000 nM.

Which IC50 (C150 protein; [2]) does the source give for `Cc1c(NC(=O)NC2(C)COC2)c2n(c1C(=O)Nc1cc(F)nc(C#N)c1)CCCCC2` [Compound 100r] here?
The IC50 was 1000 to 100000 nM.

What about the EC50 (HBV) of the same compound?
The EC50 was 0.1 to 100 nM.

What about the CC50 at 4 days [1] of the same compound?
Its CC50 at 4 days is over 30000 nM.
